Results as given in paper PMC12090182, “Repurposing of the RIPK1-Selective Benzo[1,4]oxazepin-4-one Scaffold for the Development of a Type III LIMK1/2 Inhibitor” (ACS Chemical Biology, 2025).
Like-named read-outs stand apart in the source and are kept apart here.

Columns and labels:
BRAF(V600E) [1] = biological target: T1, BRAF(V600E) (Homo sapiens, UniProt P15056, V600E); experiment: cell-based; conditions: HEK-293T; 1 μM inhibitor, HEK293T cells
BTK2 = BTK2 (Homo sapiens, UniProt Q06187); experiment: scanMAX KINOMEscan (Eurofins); format: binding
FLT3(D835H) = FLT3(D835H) (Homo sapiens, UniProt P36888, D835H); experiment: biochemical; format: binding; conditions: 1000 nM, read-out: Percent Control
FLT3(N841I) = FLT3(N841I) (Homo sapiens, UniProt P36888, N841I); experiment: biochemical; format: binding; conditions: 1000 nM, read-out: Percent Control
[2] = biological target: ABL1(Q252H)-phosphorylated (Homo sapiens, UniProt P00519, Q252H); experiment: biochemical; format: binding; conditions: read-out: Percent Control
FLT3(ITD,F691L) = format: binding; conditions: 1000 nM
KIT(V559D) = KIT(V559D) (Homo sapiens, UniProt P10721, V559D); experiment: biochemical; format: binding; conditions: 1000 nM, read-out: Percent Control
MET(Y1235D) = MET(Y1235D) (Homo sapiens, UniProt P08581, Y1235D); experiment: biochemical; format: binding; conditions: 1000 nM, read-out: Percent Control
KIT(V559D,V654A) = KIT(V559D,V654A) (Homo sapiens, UniProt P10721, V559D/V654A); experiment: biochemical; format: binding; conditions: read-out: Percent Control
PIK3CA(E545K) = PIK3CA(E545K) (Homo sapiens, UniProt P42336, E545K); experiment: biochemical; format: binding; conditions: read-out: Percent Control
[3] = biological target: ABL1(F317I)-phosphorylated (Homo sapiens, UniProt P00519, F317I); experiment: biochemical; format: binding; conditions: read-out: Percent Control
EGFR(L747-T751del,Sins) = format: binding
[4] = biological target: EGFR(L747-S752del, P753S) (Homo sapiens, UniProt P00533, DEL747-752/P753S); experiment: biochemical; format: binding; conditions: read-out: Percent Control
[5] = biological target: T2, ABL1(M351T)-phosphorylated (Homo sapiens, UniProt P00519, M351T); experiment: biochemical; format: binding; conditions: read-out: Percent Control
RET(V804M) = RET(V804M) (Homo sapiens, UniProt P07949, V804M); experiment: biochemical; format: binding; conditions: 1000 nM, read-out: Percent Control
BRAF(V600E) [6] = biological target: T1, BRAF(V600E); experiment: biochemical; format: binding; conditions: 1000 nM, read-out: Percent Control
[7] = biological target: EGFR(L747-E749del, A750P) (Homo sapiens, UniProt P00533, A750P/DEL747-749); experiment: biochemical; format: binding; conditions: compound concentration 100 nM; Entrez EGFR; read-out: Percent Control
ALK(C1156Y) = ALK(C1156Y) (Homo sapiens, UniProt Q9UM73, C1156Y); experiment: biochemical; format: binding; conditions: 1000 nM, read-out: Percent Control
EGFR(G719C) = EGFR(G719C) (Homo sapiens, UniProt P00533, G719C); experiment: biochemical; format: binding; conditions: 1000 nM, read-out: Percent Control
EGFR(T790M) = EGFR(T790M) (Homo sapiens, UniProt P00533, T790M); experiment: biochemical; format: binding; conditions: 1000 nM, read-out: Percent Control
ALK(L1196M) = ALK(L1196M) (Homo sapiens, UniProt Q9UM73, L1196M); experiment: biochemical; format: binding; conditions: 1000 nM, read-out: Percent Control
RIPK1 = biological target: T3, RIPK1 (Homo sapiens, UniProt Q13546); experiment: scanMAX KINOMEscan (Eurofins); format: binding
T3 construct: full-length LIMK1/2, RIPK1, BTK, and LRRK2 cloned in a frame in a NanoLuc-vector (Promega); host or cells: HEK293T
T3 sequence (Q13546 1-671): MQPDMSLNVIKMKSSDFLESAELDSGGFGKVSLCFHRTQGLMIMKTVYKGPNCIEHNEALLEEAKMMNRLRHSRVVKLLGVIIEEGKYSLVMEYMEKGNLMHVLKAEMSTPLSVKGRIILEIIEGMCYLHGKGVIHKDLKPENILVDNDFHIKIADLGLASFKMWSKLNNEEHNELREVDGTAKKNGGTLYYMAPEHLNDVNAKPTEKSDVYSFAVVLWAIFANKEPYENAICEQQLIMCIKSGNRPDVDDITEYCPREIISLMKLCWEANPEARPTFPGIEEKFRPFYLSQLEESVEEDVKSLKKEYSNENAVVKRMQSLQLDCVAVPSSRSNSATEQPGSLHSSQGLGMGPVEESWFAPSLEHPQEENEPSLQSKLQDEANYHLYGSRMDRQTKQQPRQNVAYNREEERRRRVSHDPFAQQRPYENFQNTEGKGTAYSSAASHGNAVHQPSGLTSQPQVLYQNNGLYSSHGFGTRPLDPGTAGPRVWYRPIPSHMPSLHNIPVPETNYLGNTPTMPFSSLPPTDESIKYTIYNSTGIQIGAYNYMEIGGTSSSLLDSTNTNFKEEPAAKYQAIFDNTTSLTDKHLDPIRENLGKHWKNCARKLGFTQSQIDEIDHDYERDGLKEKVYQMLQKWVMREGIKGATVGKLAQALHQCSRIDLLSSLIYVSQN

FLT3(K663Q) [8] = biological target: T4, FLT3(K663Q) (Homo sapiens, UniProt P36888, K663Q); experiment: biochemical; format: binding; conditions: compound concentration 100 nM; Entrez FLT3; read-out: Percent Control
FLT3(K663Q) [9] = biological target: T4, FLT3(K663Q); experiment: biochemical; format: binding; conditions: 1000 nM, read-out: Percent Control
[10] = biological target: T2, ABL1(M351T)-phosphorylated; experiment: biochemical; format: binding; conditions: compound concentration 100 nM; Entrez ABL1; read-out: Percent Control

Sequence of BTK2 (Q06187 whole entry): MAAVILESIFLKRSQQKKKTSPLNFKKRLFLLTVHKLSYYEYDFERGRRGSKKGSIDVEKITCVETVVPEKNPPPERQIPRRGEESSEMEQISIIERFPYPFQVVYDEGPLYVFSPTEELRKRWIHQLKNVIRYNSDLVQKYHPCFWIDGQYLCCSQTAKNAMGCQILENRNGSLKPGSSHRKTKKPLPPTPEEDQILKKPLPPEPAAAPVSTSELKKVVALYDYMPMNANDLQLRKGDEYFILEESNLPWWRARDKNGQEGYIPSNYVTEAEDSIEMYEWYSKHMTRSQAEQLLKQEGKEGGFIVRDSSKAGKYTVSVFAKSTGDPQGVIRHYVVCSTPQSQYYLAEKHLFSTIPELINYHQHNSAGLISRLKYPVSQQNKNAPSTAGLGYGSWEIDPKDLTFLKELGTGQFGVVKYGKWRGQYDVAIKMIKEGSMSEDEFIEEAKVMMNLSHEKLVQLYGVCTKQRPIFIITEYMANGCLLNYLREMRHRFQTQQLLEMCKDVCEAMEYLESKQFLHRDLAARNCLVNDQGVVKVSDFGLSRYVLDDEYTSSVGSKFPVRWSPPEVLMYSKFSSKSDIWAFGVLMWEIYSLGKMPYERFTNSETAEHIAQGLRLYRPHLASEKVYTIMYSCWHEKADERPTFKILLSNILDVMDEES
T1 sequence (P15056 whole entry V600E): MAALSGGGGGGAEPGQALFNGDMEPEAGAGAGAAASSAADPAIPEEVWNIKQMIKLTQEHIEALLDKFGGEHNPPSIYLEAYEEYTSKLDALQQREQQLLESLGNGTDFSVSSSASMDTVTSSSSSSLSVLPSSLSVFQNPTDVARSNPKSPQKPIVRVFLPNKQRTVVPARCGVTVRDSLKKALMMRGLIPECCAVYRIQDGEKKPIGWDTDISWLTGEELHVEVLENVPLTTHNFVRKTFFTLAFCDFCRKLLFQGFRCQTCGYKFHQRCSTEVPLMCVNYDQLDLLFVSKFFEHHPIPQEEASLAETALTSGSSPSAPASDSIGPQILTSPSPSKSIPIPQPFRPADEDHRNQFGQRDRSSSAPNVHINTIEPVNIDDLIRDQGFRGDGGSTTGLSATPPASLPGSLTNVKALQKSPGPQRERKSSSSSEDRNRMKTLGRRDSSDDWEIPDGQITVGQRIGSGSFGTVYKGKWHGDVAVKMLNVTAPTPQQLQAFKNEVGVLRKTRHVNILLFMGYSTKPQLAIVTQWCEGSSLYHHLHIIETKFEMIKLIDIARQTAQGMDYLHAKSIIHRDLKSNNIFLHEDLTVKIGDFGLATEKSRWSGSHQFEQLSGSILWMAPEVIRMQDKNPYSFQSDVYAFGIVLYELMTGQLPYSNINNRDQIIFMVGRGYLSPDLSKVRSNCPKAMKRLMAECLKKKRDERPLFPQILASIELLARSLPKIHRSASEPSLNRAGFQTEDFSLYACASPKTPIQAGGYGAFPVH
Sequence of MET(Y1235D) (P08581 25-1390 Y1235D): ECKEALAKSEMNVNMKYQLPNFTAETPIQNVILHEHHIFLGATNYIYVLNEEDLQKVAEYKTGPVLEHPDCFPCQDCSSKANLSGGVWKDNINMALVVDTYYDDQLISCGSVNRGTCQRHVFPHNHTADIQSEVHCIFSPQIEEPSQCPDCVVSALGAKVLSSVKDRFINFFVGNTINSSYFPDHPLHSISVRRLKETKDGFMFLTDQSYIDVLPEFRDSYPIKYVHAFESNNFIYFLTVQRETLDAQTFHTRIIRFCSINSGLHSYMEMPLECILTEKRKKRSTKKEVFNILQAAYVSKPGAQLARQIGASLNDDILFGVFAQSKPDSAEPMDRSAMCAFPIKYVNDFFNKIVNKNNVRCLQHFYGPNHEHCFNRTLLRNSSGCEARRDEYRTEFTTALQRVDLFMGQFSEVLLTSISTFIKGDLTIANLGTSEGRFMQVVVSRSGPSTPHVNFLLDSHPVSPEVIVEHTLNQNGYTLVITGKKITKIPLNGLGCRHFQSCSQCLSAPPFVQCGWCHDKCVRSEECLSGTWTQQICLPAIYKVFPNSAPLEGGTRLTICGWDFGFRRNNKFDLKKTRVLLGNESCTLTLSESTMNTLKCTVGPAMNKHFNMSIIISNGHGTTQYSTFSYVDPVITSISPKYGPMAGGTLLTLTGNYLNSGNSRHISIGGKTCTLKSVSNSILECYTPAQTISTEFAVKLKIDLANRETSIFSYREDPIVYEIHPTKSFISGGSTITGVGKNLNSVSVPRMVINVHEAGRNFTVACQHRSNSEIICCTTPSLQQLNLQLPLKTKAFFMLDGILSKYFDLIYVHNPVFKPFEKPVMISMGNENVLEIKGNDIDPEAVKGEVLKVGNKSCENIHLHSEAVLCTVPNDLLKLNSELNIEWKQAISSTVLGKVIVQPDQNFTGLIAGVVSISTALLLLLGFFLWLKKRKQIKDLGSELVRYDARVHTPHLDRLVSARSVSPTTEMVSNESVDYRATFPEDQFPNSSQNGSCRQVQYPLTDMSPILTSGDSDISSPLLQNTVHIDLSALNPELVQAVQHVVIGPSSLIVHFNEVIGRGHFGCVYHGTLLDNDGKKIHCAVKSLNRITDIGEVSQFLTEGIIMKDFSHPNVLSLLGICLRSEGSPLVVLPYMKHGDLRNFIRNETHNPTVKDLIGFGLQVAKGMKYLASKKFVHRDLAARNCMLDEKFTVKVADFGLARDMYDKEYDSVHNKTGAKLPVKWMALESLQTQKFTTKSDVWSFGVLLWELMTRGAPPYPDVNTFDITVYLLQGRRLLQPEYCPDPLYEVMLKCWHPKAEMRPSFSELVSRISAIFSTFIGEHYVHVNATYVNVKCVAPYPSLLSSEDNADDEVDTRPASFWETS
Sequence of ALK(C1156Y) (Q9UM73 19-1620 C1156Y): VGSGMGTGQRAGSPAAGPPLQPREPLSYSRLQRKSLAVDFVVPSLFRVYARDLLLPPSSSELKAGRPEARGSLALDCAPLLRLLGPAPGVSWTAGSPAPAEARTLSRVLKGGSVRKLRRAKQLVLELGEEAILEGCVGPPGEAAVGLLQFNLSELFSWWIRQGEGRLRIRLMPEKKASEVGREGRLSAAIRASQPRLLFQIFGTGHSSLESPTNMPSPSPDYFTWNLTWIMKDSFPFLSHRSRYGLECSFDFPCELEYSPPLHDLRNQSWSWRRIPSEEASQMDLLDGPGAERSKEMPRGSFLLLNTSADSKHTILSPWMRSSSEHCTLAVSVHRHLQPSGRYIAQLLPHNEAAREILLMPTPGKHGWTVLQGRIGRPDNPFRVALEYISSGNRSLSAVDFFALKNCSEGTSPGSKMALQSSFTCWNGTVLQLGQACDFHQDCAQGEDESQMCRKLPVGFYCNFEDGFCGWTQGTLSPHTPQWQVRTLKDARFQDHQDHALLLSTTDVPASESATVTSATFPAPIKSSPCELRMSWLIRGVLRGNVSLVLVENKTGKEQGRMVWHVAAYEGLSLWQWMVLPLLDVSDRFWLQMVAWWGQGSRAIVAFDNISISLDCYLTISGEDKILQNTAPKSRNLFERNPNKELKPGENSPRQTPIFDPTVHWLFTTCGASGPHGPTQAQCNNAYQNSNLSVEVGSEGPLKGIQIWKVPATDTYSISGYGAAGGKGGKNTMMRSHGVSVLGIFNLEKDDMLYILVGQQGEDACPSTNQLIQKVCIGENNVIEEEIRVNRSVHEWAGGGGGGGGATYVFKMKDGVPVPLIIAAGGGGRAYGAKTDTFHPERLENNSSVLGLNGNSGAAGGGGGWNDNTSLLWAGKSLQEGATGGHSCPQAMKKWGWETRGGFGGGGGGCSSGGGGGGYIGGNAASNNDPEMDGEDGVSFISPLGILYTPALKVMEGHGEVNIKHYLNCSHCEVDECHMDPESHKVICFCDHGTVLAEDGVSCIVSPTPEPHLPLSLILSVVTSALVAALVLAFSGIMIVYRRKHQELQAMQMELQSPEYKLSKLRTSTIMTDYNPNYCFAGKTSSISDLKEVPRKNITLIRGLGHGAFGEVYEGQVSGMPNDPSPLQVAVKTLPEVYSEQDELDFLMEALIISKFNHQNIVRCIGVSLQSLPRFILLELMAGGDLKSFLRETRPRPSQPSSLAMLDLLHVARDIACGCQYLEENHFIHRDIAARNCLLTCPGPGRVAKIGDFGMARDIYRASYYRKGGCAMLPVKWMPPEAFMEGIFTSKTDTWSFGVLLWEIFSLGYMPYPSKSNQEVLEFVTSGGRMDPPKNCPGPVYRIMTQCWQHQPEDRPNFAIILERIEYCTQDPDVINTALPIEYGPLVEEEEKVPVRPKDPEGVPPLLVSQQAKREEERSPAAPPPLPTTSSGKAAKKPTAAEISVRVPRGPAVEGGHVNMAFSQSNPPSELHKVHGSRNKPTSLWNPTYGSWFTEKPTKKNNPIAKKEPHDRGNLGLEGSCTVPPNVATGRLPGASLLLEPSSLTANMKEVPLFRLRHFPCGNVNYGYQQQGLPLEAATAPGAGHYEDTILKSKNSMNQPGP
Sequence of EGFR(L747-E749del, A750P) (P00533 other isoform, or with tags, fused parts or gaps DEL747-749/A750P): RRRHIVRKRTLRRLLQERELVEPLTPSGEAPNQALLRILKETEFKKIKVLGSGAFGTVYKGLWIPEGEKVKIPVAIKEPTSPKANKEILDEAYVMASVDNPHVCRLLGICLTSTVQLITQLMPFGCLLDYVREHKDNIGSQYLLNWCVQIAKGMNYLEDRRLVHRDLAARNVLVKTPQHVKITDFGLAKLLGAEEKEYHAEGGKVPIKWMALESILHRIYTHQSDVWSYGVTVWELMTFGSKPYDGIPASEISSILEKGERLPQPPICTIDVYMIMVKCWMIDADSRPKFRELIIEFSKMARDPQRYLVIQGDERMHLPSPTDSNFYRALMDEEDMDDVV
Sequence of EGFR(L747-S752del, P753S) (P00533 other isoform, or with tags, fused parts or gaps DEL747-752/P753S): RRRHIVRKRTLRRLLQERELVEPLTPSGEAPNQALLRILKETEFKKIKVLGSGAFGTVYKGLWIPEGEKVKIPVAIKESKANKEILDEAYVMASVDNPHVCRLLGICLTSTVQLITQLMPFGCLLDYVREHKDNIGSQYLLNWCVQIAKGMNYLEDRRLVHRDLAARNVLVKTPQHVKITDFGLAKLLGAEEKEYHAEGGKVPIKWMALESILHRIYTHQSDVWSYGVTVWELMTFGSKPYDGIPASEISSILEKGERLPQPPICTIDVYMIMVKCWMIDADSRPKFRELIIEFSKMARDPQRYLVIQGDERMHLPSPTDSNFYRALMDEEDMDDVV

CN1C(=O)[C@@H](N2CCc3c(nn(Cc4ccccc4)c3C(N)=O)C2=O)COc2cc(Cl)ccc21 [Compound 10, (S)-2-benzyl-6-(8-chloro-5-methyl-4-oxo-2,3,4,5-tetrahydrobenzo[b][1,4]oxazepin-3-yl)-7-oxo-4,5,6,7-tetrahydro-2H-pyrazolo[3,4-c]pyridine-3-carboxamide]
receptor occupancy at 1 µM (BRAF(V600E) [1]): -9.8% | remaining binding at 1 µM (BTK2; BTK2, 1 μM, read-out: POC (Top Hits @ 1 μM)): 55% | remaining binding at 0.1 µM (BTK2; BTK (Entrez BTK), 100 nM, read-out: Percent Control): 62% | remaining binding at 1 µM (BTK2; BTK, 1000 nM, read-out: Percent Control): 55% | remaining activity at 1 µM (FLT3(D835H)): 100% | remaining activity at 1 µM (FLT3(N841I)): 96% | remaining activity at 1 µM [2]: 78% | Percent Control (FLT3(ITD,F691L)): 100% | remaining activity at 1 µM (KIT(V559D)): 85% | remaining activity at 1 µM (MET(Y1235D)): 93% | remaining activity at 1 µM (KIT(V559D,V654A)): 92% | remaining activity at 1 µM (PIK3CA(E545K)): 97% | remaining activity at 1 µM [3]: 100% | Percent Control (EGFR(L747-T751del,Sins)): 97% | remaining activity at 1 µM [4]: 100% | remaining activity at 1 µM [5]: 100% | remaining activity at 1 µM (RET(V804M)): 93% | remaining activity at 1 µM (BRAF(V600E) [6]): 100% | remaining activity at 0.1 µM [7]: 100% | remaining activity at 1 µM (ALK(C1156Y)): 82% | remaining activity at 1 µM (EGFR(G719C)): 86% | remaining activity at 1 µM (EGFR(T790M)): 100% | remaining activity at 1 µM (ALK(L1196M)): 90% | remaining binding at 0.1 µM (RIPK1; RIPK1 (Entrez RIPK1), 100 nM, read-out: Percent Control): 55% | remaining binding at 1 µM (RIPK1; RIPK1, 1 μM, read-out: POC (Top Hits @ 1 μM)): 23% | remaining binding at 1 µM (RIPK1; RIPK1, 1000 nM, read-out: Percent Control): 23% | remaining activity at 0.1 µM (FLT3(K663Q) [8]): 100% | remaining activity at 1 µM (FLT3(K663Q) [9]): 100% | remaining activity at 0.1 µM [10]: 92%
